# Columns and labels:
# human TLR8 = human TLR8 (Homo sapiens (Human), UniProt Q9NR97); experiment: TLR8 inhibition reporter assay (HEK-Blue SEAP reporter, R848 stimulation); conditions: read-out: TLR8 IC50; HEK-Blue cells overexpressing human TLR8, R848 15.9 μM, SEAP reporter;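 further: SEAP driven by IFN-β minimal promoter with NF-κB and AP-1 sites, 22 h incubation, compounds 0.05 nM–50 µM, inhibition scaled between agonist plus DMSO and reference inhibitor wells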
# human TLR7 = human TLR7 (Homo sapiens (Human), UniProt Q9NYK1); experiment: TLR7 inhibition reporter assay (HEK-Blue SEAP reporter, gardiquimod stimulation); type: cell-based; conditions: HEK-Blue cells overexpressing human TLR7, gardiquimod 7.5 μM
# human TLR9 = human TLR9 (Homo sapiens (Human), UniProt Q9NR96); experiment: TLR9 inhibition reporter assay (HEK-Blue SEAP reporter, ODN2006 stimulation); conditions: read-out: TLR9 IC50; HEK-Blue cells overexpressing human TLR9, ODN2006 5 nM, SEAP reporter;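 further: SEAP reporter under IFN-β minimal promoter with five NF-κB and AP-1 sites, 22 h incubation, compounds 0.05 nM–50 µM, inhibition relative to agonist plus DMSO versus known inhibitor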
# Sequence of human TLR9 (Q9NR96 26-1032): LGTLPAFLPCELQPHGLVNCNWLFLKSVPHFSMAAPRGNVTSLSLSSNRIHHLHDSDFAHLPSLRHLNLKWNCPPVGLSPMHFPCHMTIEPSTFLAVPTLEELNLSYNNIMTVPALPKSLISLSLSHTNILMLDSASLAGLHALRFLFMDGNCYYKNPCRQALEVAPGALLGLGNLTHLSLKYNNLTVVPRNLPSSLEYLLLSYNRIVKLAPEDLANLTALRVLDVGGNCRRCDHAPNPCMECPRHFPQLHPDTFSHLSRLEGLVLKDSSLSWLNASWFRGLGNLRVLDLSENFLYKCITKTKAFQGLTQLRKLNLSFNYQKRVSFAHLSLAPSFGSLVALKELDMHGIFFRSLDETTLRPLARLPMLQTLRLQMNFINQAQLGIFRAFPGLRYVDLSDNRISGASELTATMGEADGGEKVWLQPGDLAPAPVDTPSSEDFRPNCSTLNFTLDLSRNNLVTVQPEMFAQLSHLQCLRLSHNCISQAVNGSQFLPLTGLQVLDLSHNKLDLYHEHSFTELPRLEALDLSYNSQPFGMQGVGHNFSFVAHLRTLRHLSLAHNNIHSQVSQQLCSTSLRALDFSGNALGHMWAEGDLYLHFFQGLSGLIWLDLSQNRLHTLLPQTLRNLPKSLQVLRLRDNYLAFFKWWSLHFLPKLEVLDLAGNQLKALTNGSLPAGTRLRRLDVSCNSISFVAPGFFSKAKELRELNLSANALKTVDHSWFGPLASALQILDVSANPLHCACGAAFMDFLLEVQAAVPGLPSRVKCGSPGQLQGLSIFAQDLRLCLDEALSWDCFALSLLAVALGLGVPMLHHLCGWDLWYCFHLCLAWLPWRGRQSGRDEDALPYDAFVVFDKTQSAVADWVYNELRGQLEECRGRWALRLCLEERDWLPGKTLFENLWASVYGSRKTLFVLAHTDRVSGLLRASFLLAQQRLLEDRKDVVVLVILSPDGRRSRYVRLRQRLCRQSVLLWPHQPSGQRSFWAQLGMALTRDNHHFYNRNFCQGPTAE
# Sequence of human TLR8 (Q9NR97 27-1041): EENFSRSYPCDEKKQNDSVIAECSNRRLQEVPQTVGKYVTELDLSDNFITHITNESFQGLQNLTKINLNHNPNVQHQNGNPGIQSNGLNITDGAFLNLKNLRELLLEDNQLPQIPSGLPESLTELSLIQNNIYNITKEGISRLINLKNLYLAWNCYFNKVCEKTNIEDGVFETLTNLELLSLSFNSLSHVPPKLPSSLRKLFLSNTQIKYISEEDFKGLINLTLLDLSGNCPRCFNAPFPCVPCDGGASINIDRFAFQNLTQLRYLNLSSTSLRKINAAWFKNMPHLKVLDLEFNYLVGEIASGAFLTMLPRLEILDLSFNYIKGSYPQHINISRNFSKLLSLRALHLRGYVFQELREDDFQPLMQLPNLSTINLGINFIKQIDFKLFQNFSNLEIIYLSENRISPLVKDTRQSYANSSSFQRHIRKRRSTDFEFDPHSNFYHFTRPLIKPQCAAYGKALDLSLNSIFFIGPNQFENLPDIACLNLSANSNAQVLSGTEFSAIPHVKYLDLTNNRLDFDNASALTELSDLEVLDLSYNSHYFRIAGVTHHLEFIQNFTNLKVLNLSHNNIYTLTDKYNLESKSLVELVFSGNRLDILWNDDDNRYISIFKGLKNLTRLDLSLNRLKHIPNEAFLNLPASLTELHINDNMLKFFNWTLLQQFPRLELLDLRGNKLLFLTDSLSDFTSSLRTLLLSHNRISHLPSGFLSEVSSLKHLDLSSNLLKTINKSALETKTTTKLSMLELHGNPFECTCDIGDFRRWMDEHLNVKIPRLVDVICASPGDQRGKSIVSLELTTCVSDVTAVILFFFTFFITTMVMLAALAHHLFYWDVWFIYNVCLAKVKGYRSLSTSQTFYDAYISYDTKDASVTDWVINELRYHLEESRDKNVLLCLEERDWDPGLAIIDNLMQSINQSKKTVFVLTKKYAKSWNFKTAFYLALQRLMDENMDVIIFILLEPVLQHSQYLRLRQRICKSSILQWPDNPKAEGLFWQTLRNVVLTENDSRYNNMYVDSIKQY
# Sequence of human TLR7 (Q9NYK1 27-1049): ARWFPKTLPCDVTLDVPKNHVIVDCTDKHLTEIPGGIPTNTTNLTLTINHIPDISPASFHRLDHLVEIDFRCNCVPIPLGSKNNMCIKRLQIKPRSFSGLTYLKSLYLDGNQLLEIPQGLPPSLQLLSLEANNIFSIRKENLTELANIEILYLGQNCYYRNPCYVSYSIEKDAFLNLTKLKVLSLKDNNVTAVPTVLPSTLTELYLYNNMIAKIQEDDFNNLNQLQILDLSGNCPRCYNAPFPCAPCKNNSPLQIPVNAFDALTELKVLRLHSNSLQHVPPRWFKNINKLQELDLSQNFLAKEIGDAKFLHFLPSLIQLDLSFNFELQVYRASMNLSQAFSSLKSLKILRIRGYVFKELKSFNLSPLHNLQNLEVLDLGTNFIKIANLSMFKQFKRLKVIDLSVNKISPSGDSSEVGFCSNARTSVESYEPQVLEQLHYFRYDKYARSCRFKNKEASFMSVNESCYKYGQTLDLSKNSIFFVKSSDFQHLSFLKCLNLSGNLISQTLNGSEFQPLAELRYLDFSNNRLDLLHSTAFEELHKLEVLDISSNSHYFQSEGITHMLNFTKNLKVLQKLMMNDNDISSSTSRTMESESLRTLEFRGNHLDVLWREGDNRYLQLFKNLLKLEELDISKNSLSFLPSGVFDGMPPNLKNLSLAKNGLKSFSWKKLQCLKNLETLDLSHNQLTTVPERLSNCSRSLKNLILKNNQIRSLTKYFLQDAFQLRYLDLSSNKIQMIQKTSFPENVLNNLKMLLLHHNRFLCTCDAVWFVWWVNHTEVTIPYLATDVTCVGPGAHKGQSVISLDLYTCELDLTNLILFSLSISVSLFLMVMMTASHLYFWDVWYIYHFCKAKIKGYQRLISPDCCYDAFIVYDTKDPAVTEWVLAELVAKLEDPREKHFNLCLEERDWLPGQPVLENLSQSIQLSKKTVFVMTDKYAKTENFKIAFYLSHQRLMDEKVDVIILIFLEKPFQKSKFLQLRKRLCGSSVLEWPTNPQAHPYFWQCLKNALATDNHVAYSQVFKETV
IC50 (human TLR8),IC50 (human TLR7),IC50 (human TLR9),SMILES
92 nM,109 nM,1210 nM,"Cc1cc(-c2[nH]c3ccc(C(C)(C)C(=O)NC4CCC5CNCC54)cc3c2C(C)C)ccn1 (stereo not drawn) [Example 147, 2-(3-isopropyl-2-(2-methylpyridin-4-yl)-1H-indol-5-yl)-2-methyl-N-(octahydrocyclopenta[c]pyrrol-4-yl)propanamide]"
141 nM,22 nM,1490 nM,"Cc1cc(-c2[nH]c3ccc(C(C)(C)C(=O)N4CCC5(CCN(C)C5)CC4)cc3c2C(C)C)ccn1 [Example 150, 2-(3-isopropyl-2-(2-methylpyridin-4-yl)-1H-indol-5-yl)-2-methyl-1-(2-methyl-2,8-diazaspiro[4.5]decan-8-yl)propan-1-one]"
49 nM,30 nM,375 nM,"COc1ccc(-c2[nH]c3ccc(C(=O)N4CC5CNCC5C4)cc3c2C(C)C)cc1OC (stereo not drawn) [Example 1, 2-(3,4-dimethoxyphenyl)-5-{octahydropyrrolo[3,4-c]pyrrole-2-carbonyl}-3-(propan-2-yl)-1H-indole]"
7.9 nM,115 nM,2510 nM,"CCc1c(-c2ccc(OC)c(OC)c2)[nH]c2ccc(C(=O)NCCN(C)C)cc12 [Example 17, 2-(3,4-dimethoxyphenyl)-N-[2-(dimethylamino)ethyl]-3-ethyl-1H-indole-5-carboxamide]"
58 nM,128 nM,1460 nM,"Cc1cc(-c2[nH]c3ccc(C(C)(C)C(=O)N4CCC(OC5CCNCC5)CC4)cc3c2C(C)C)ccn1 [Example 177, 2-(3-isopropyl-2-(2-methylpyridin-4-yl)-1H-indol-5-yl)-2-methyl-1-(4-(piperidin-4-yloxy)piperidin-1-yl)propan-1-one]"
602 nM,67 nM,5220 nM,"Cc1cc(-c2[nH]c3ccc(C(C)(C)C(=O)NCCC4CCCNC4)cc3c2C(C)C)ccn1 (stereo not drawn) [Example 171, 2-(3-isopropyl-2-(2-methylpyridin-4-yl)-1H-indol-5-yl)-2-methyl-N-(2-(piperidin-3-yl)ethyl)propanamide]"
545 nM,1980 nM,5100 nM,"CCc1c(-c2ccc(OC)c(OC)c2)[nH]c2ccc(C(=O)N3CCCC(C)(C)C3)cc12 [Example 32, (2-(3,4-dimethoxyphenyl)-3-ethyl-1H-indol-5-yl)(3,3-dimethylpiperidin-1-yl)methanone]"
325 nM,58 nM,1800 nM,"Cc1cc(-c2[nH]c3ccc(C(C)(C)C(=O)NC[C@H]4CC[C@H](N)CC4)cc3c2C(C)C)ccn1 [Example 172, N-(((1r,4r)-4-aminocyclohexyl)methyl)-2-(3-isopropyl-2-(2-methylpyridin-4-yl)-1H-indol-5-yl)-2-methylpropanamide]"
70 nM,74 nM,1870 nM,"Cc1cc(-c2[nH]c3ccc(C(C)C(=O)N4CCCC5(CCCCC5N)C4)cc3c2C(C)C)ccn1 (stereo not drawn) [Example 201, 1-(7-amino-2-azaspiro[5.5]undecan-2-yl)-2-(3-isopropyl-2-(2-methylpyridin-4-yl)-1H-indol-5-yl)propan-1-one]"
2.3 nM,1.8 nM,3350 nM,"COc1cc(-c2[nH]c3ccc(C(=O)N(C)CCN(C)C)cc3c2C(C)C)cn2ncnc12 [Example 129, N-(2-(dimethylamino)ethyl)-3-isopropyl-2-(8-methoxy-[1,2,4]triazolo[1,5-a]pyridin-6-yl)-N-methyl-1H-indole-5-carboxamide]"
174 nM,148 nM,1370 nM,"Cc1cc(-c2[nH]c3ccc(C(C)C(=O)N[C@@H]4CCCC[C@H]4N)cc3c2C(C)C)ccn1 (stereo partly drawn) [Example 215, N-((1R,2R)-2-aminocyclohexyl)-2-(3-isopropyl-2-(2-methylpyridin-4-yl)-1H-indol-5-yl)propanamide]"
2.1 nM,9.2 nM,670 nM,"Cc1cc(-c2[nH]c3ccc(C(=O)NC4CCN(C(C)C)CC4)cc3c2C(C)C)cc(C)n1 [Example 91, 2-(2,6-dimethylpyridin-4-yl)-3-isopropyl-N-(1-isopropylpiperidin-4-yl)-1H-indole-5-carboxamide]"
344 nM,866 nM,4050 nM,"COc1ccc(-c2[nH]c3ccc(C(=O)N4CC5CN(CC(=O)N(C)C)CC5C4)cc3c2CC(F)(F)F)cc1OC (stereo not drawn) [Example 90, 2-(5-(2-(3,4-dimethoxyphenyl)-3-(2,2,2-trifluoroethyl)-1H-indole-5-carbonyl)hexahydropyrrolo[3,4-c]pyrrol-2(1H)-yl)-N,N-dimethylacetamide]"
1130 nM,35 nM,4930 nM,"Cc1cc(-c2[nH]c3ccc(C(C)(C)C(=O)N4CC5(CCNCC5)C4)cc3c2C(C)C)ccn1 [Example 179, 2-(3-isopropyl-2-(2-methylpyridin-4-yl)-1H-indol-5-yl)-2-methyl-1-(2,7-diazaspiro[3.5]nonan-2-yl)propan-1-one]"
0.5 nM,16 nM,2350 nM,"CCc1c(-c2ccnc3[nH]ccc23)[nH]c2ccc(C(=O)N(CC)CCN(C)C)cc12 [Example 83, N-(2-(dimethylamino)ethyl)-N,3-diethyl-2-(1H-pyrrolo[2,3-b]pyridin-4-yl)-1H-indole-5-carboxamide]"
480 nM,714 nM,40300 nM,"CCc1c(-c2ccc(OC)c(OC)c2)[nH]c2ccc(C(=O)N(CCOC)CCOC)cc12 [Example 77, 2-(3,4-dimethoxyphenyl)-3-ethyl-N,N-bis(2-methoxyethyl)-1H-indole-5-carboxamide]"
139 nM,91 nM,533 nM,"Cc1cc(-c2[nH]c3ccc(C(C)(C)C(=O)N4CCCC5(CCNC5)C4)cc3c2C(C)C)ccn1 (stereo not drawn) [Example 184, 2-(3-isopropyl-2-(2-methylpyridin-4-yl)-1H-indol-5-yl)-2-methyl-1-(2,7-diazaspiro[4.5]decan-7-yl)propan-1-one]"
2.6 nM,3.8 nM,1400 nM,"COc1cc(-c2[nH]c3ccc(C(=O)N4CCCN(C)CC4)cc3c2C(C)C)cn2ncnc12 [Example 128, (3-isopropyl-2-(8-methoxy-[1,2,4]triazolo[1,5-a]pyridin-6-yl)-1H-indol-5-yl)(4-methyl-1,4-diazepan-1-yl)methanone]"
243 nM,2380 nM,> 50000 nM,"CCc1c(-c2ccc(OC)c(OC)c2)[nH]c2ccc(C(=O)NCc3ccc(N)cc3)cc12 [Example 52, N-(4-aminobenzyl)-2-(3,4-dimethoxyphenyl)-3-ethyl-1H-indole-5-carboxamide]"
645 nM,606 nM,36000 nM,"CCN(CC)C(=O)C1CCCN(CC(=O)N2CC3CN(C(=O)c4ccc5[nH]c(-c6ccc(OC)c(OC)c6)c(C(C)C)c5c4)CC3C2)C1 (single isomer, unassigned) [Example 11, 1-(2-{5-[2-(3,4-dimethoxyphenyl)-3-(propan-2-yl)-1H-indole-5-carbonyl]-octahydropyrrolo[3,4-c]pyrrol-2-yl}-2-oxoethyl)-N,N-diethylpiperidine-3-carboxamide]"
1080 nM,803 nM,1400 nM,"Cc1cc(-c2[nH]c3ccc(C(C)C(=O)NC4CCCC(N)C4)cc3c2C(C)C)ccn1 (stereo not drawn) [Example 218, N-(3-aminocyclohexyl)-2-(3-isopropyl-2-(2-methylpyridin-4-yl)-1H-indol-5-yl)propanamide]"
96 nM,103 nM,685 nM,"Cc1cc(-c2[nH]c3ccc(C(C)C(=O)N(C)C4CCCNC4)cc3c2C(C)C)ccn1 (stereo not drawn) [Example 209, 2-(3-isopropyl-2-(2-methylpyridin-4-yl)-1H-indol-5-yl)-N-methyl-N-(piperidin-3-yl)propanamide]"
45 nM,82 nM,> 50000 nM,"Cc1cc(-c2[nH]c3ccc(C(=O)N4CCN(Cc5ncn(C)n5)CC4)cc3c2C(C)C)cc(C)n1 [Example 98, (2-(2,6-dimethylpyridin-4-yl)-3-isopropyl-1H-indol-5-yl)(4-((1-methyl-1H-1,2,4-triazol-3-yl)methyl)piperazin-1-yl)methanone]"
75 nM,83 nM,231 nM,"Cc1cc(-c2[nH]c3ccc(C(=O)NC4CCN(C(C)C)CC4)cc3c2CC(F)F)cc(C)n1 [Example 123, 3-(2,2-difluoroethyl)-2-(2,6-dimethylpyridin-4-yl)-N-(1-isopropylpiperidin-4-yl)-1H-indole-5-carboxamide]"
3.6 nM,50 nM,516 nM,"Cc1cc(-c2[nH]c3ccc(C(=O)NCCCN(C)C)cc3c2C(C)C)cc(C)n1 [Example 95, N-(3-(dimethylamino)propyl)-2-(2,6-dimethylpyridin-4-yl)-3-isopropyl-1H-indole-5-carboxamide]"
2.4 nM,135 nM,3630 nM,"Cc1cc(-c2[nH]c3ccc(C(=O)N4CCCN(C)CC4)cc3c2C(C)C)ccn1 [Example 114, (3-isopropyl-2-(2-methylpyridin-4-yl)-1H-indol-5-yl)(4-methyl-1,4-diazepan-1-yl)methanone]"
119 nM,74 nM,939 nM,"Cc1cc(-c2[nH]c3ccc(C(C)C(=O)N4CCC[C@H](N)C4)cc3c2C(C)C)ccn1 (stereo partly drawn) [Example 204, 1-((S)-3-aminopiperidin-1-yl)-2-(3-isopropyl-2-(2-methylpyridin-4-yl)-1H-indol-5-yl)propan-1-one]"

SMILES,IC50 (human TLR8),IC50 (human TLR7),IC50 (human TLR9)
"Cc1cc(-c2[nH]c3ccc(C(C)C(=O)N(C)C4CN5CCC4CC5)cc3c2C(C)C)ccn1 (stereo not drawn) [Example 211, 2-(3-isopropyl-2-(2-methylpyridin-4-yl)-1H-indol-5-yl)-N-methyl-N-(quinuclidin-3-yl)propanamide]",51 nM,50 nM,472 nM
